# Molecular target: T1, HIV integrase (Human immunodeficiency virus type 1 group M subtype B, UniProt P12497, F1332H)
# T1 construct: HIV integrase full length gene; made in house; host or cells: Escherichia coli BL21(DE3)
# Assay: Determination of enzyme (HIV integrase) inhibitory activity
# Format: biochemical, HIV (Human Immunodeficiency Virus (type 1))
# Conditions: recombinant integrase protein (F185H), strand transfer plate assay, absorbance at 450 nm
# From the text: The following explains evaluation methods of the HIV integrase inhibitory activity of the compound of the present invention.
# (i) Construction of Recombinant Integrase Gene Expression System
# HIV integrase full length gene (J. Virol., 67, 425-437 (1993)) in which phenylalanine at codon 185 was substituted by histidine, was inserted between the restriction enzyme NdeI and XhoI sites of plasmid pET21a(+) (Novagen), whereby an integrase expression vector pET21a-IN-F185H was constructed.
# (ii) Production and Purification of Integrase Protein
# Escherichia coli recombinant BL21(DE3) transformed with plasmid pET21a-IN-F185H obtained in (i) was shake cultured at 30° C. in a liquid medium containing ampicillin. When the culture reached the logarithmic growth phase, isopropyl-β-D-thiogalactopyranoside was added to promote expression of integrase gene. The culture was continued for 3 hr to promote accumulation of the integrase protein. The recombinant E. coli was collected in pellets by centrifugal separation and preserved at −80° C.
# The E. coli was suspended in Lysis buffer ([…] HEPES (pH 7.5), 5 mM DTT, 10 mM CHAPS, 10% glycerol) containing 1M sodium chloride and subjected to repeat pressurization and depressurization for rupture, and centrifugal separation at 4° C., 40,000×g, 60 min to recover a water-soluble fraction (supernatant). This was diluted 10-fold with Lysis buffer free of sodium chloride, mixed with SP-Sepharose (GE healthcare Bioscience) and stirred at 4° C. for 60 min to allow adsorption of integrase protein to the resin. The resin was washed with Lysis buffer containing 100 mM sodium chloride and the integrase protein was eluted with Lysis buffer containing 1M sodium chloride.
# The eluted integrase protein solution was subjected to a Superdex 75 (GE healthcare Bioscience) column for gel filtration. The protein was eluted with Lysis buffer containing 1M sodium chloride.
# The obtained fractions of the integrase protein were collected and preserved at −80° C.
# (iii) Preparation of DNA Solution
# The following DNA synthesized by Greiner or FASMAC was dissolved in TE buffer (10 mM Tris-hydrochloric acid (pH 8.0), 1 mM EDTA) and mixed with donor DNA, target DNA, and each complementary strand (+ and − strands) to 1 μM. The mixture was heated at 95° C. for 5 min, 80° C. for 10 min, 70° C. for 10 min, 60° C. for 10 min, 50° C. for 10 min and 40° C. for 10 min and kept at 25° C. to give a double stranded DNA, which was used for the test.
# (iv) Determination of Enzyme (HIV Integrase) Inhibitory Activity
# The donor DNA was diluted with TE buffer to 10 nM (or 5 nM), of which 50 μl was added to each well of streptavidin-coated microtiter plate (Roche) and allowed to adsorb at 37° C. for 60 min. The plate was washed with phosphate buffer (Dulbecco's PBS, Sanko Junyaku Co., Ltd.) containing 0.1% Tween 20 and phosphate buffer. Then, an enzyme reaction mixture (70 μl), a test substance (10 μl) diluted with the enzyme reaction mixture and 100 μg/ml (or 64 μg/ml (2 μM)) integrase protein (10 μl) were added to each well and reacted at 37° C. for 60 min.
# Composition of the enzyme reaction mixture: 30 mM MOPS (3-morpholinopropanesulfonic acid), 5 mM magnesium chloride, 3 mM DTT (dithiothreitol), 0.1 mg/ml BSA (bovine serum albumin), 5% glycerol, 10% DMSO (dimethyl sulfoxide), 0.01% Tween 20.
# Then, 50 nM (or 25 nM) target DNA (10 μl) was added, reacted at 37° C. for 10 min and washed with phosphate buffer containing 0.1% Tween 20 to stop the reaction.
# Then, 100 mU/ml peroxidase labeled anti-digoxigenin antibody solution (Roche, 100 μl) was added, and the mixture was reacted at 37° C. for 60 min, followed by washing with phosphate buffer containing 0.1% Tween 20.
# A peroxidase color solution (Bio Rad, 100 μl) was added and allowed to react at room temperature for 4 min (or 3 min). The color reaction was stopped by adding IN sulfuric acid (100 μl). The absorbance at 450 nm was measured. […]
row,SMILES,IC50 [nM]
1,"CCc1cc2c(cc1Cc1cc(N3CCOCC3)cc(Cl)c1F)c(=O)c(C(=O)O)cn2[C@H](CO)COC [Example 20, 6-[3-chloro-2-fluoro-5-(morpholin-4-yl)benzyl]-7-ethyl-1-[(R)-2-hydroxy-1-(methoxymethyl)ethyl]-4-oxo-1,4-dihydroquinoline-3-carboxylic acid]",< 10
2,"COc1cc2c(cc1Cc1cc(N3CCCS3(=O)=O)cc(Cl)c1F)c(=O)c(C(=O)O)cn2[C@H](CO)C(C)C [Example 21, 6-[3-chloro-5-(1,1-dioxoisothiazolidin-2-yl)-2-fluorobenzyl]-1-((S)-1-hydroxymethyl-2-methylpropyl)-7-methoxy-4-oxo-1,4-dihydroquinoline-3-carboxylic acid]",< 10
3,"COC[C@@H](CO)n1cc(C(=O)O)c(=O)c2cc(Cc3cc(N4CCOCC4)cc(Cl)c3F)c(OC)cc21 [Example 22, 6-[3-chloro-2-fluoro-5-(morpholin-4-yl)benzyl]-1-[(R)-2-hydroxy-1-(methoxymethyl)ethyl]-7-methoxy-4-oxo-1,4-dihydroquinoline-3-carboxylic acid]",< 10
4,"CCc1cc2c(cc1Cc1cc(N3CCOCC3)cc(Cl)c1F)c(=O)c(C(=O)O)cn2[C@H](CO)C(C)C [Example 23, 6-[3-chloro-2-fluoro-5-(morpholin-4-yl)benzyl]-7-ethyl-1-((S)-1-hydroxymethyl-2-methylpropyl)-4-oxo-1,4-dihydroquinoline-3-carboxylic acid]",< 10
5,"CCc1cc2c(cc1Cc1cc(N3CCCC3=O)cc(Cl)c1F)c(=O)c(C(=O)O)cn2[C@H](CO)C(C)C [Example 24, 6-[3-chloro-2-fluoro-5-(2-oxopyrrolidin-1-yl)benzyl]-7-ethyl-1-((S)-1-hydroxymethyl-2-methylpropyl)-4-oxo-1,4-dihydroquinoline-3-carboxylic acid]",10 to 100
6,"COc1cc2c(cc1Cc1cc(N3CCCC3=O)c(F)c(Cl)c1F)c(=O)c(C(=O)O)cn2[C@H](CO)C(C)C [Example 25, 6-[3-chloro-2,4-difluoro-5-(2-oxopyrrolidin-1-yl)benzyl]-1-((S)-1-hydroxymethyl-2-methylpropyl)-7-methoxy-4-oxo-1,4-dihydroquinoline-3-carboxylic acid]",< 10
7,"CCc1cc2c(cc1Cc1cc(N3CCCC3=O)c(F)c(Cl)c1F)c(=O)c(C(=O)O)cn2[C@H](CO)C(C)C [Example 26, 6-[3-chloro-2,4-difluoro-5-(2-oxopyrrolidin-1-yl)benzyl]-7-ethyl-1-((S)-1-hydroxymethyl-2-methylpropyl)-4-oxo-1,4-dihydroquinoline-3-carboxylic acid]",< 10
8,"COc1cc2c(cc1Cc1cc(N3CCSCC3)cc(Cl)c1F)c(=O)c(C(=O)O)cn2[C@H](CO)C(C)C [Example 27, 6-[3-chloro-2-fluoro-5-(thiomorpholin-4-yl)benzyl]-1-((S)-1-hydroxymethyl-2-methylpropyl)-7-methoxy-4-oxo-1,4-dihydroquinoline-3-carboxylic acid]",< 10
9,"COc1cc2c(cc1Cc1cc(N3CCOCC3)cc(Cl)c1F)c(=O)c(C(=O)O)cn2[C@H](CO)[C@H](C)OC [Example 28, 6-[3-chloro-2-fluoro-5-(morpholin-4-yl)benzyl]-1-((1R,2S)-1-hydroxymethyl-2-methoxypropyl)-7-methoxy-4-oxo-1,4-dihydroquinoline-3-carboxylic acid]",< 10
10,"COCC[C@@H](CO)n1cc(C(=O)O)c(=O)c2cc(Cc3cc(N4CCOCC4)cc(Cl)c3F)c(OC)cc21 [Example 29, 6-[3-chloro-2-fluoro-5-(morpholin-4-yl)benzyl]-1-((S)-1-hydroxymethyl-3-methoxypropyl)-7-methoxy-4-oxo-1,4-dihydroquinoline-3-carboxylic acid]",< 10
11,"COc1cc2c(cc1Cc1cc(N3CCC(O)CC3)cc(Cl)c1F)c(=O)c(C(=O)O)cn2[C@H](CO)C(C)C [Example 32, 6-[3-chloro-2-fluoro-5-(4-hydroxypiperidin-1-yl)benzyl]-1-((S)-1-hydroxymethyl-2-methylpropyl)-7-methoxy-4-oxo-1,4-dihydroquinoline-3-carboxylic acid]",< 10
12,"CCc1cc2c(cc1Cc1cc(N3CCOCC3)cc(Cl)c1F)c(=O)c(C(=O)O)cn2[C@H](CO)[C@@H](C)OC [Example 34, 6-[3-chloro-2-fluoro-5-(morpholin-4-yl)benzyl]-7-ethyl-1-((1R,2R)-1-hydroxymethyl-2-methoxypropyl)-4-oxo-1,4-dihydroquinoline-3-carboxylic acid]",< 10
13,"CCc1cc2c(cc1Cc1cc(N3CCOCC3)cc(Cl)c1F)c(=O)c(C(=O)O)cn2[C@H](CO)[C@H](C)OC [Example 35, 6-[3-chloro-2-fluoro-5-(morpholin-4-yl)benzyl]-7-ethyl-1-((1R,2S)-1-hydroxymethyl-2-methoxypropyl)-4-oxo-1,4-dihydroquinoline-3-carboxylic acid]",10 to 100
14,"COc1cc2c(cc1Cc1cc(-c3ccccn3)cc(Cl)c1F)c(=O)c(C(=O)O)cn2[C@H](CO)C(C)C [Example 36, 6-[3-chloro-2-fluoro-5-(pyridin-2-yl)benzyl]-1-((S)-1-hydroxymethyl-2-methylpropyl)-7-methoxy-4-oxo-1,4-dihydroquinoline-3-carboxylic acid]",< 10
15,"COc1cc2c(cc1Cc1cc(-c3nccs3)cc(Cl)c1F)c(=O)c(C(=O)O)cn2[C@H](CO)C(C)C [Example 37, 6-[3-chloro-2-fluoro-5-(thiazol-2-yl)benzyl]-1-((S)-1-hydroxymethyl-2-methylpropyl)-7-methoxy-4-oxo-1,4-dihydroquinoline-3-carboxylic acid]",10 to 100
16,"CCO[C@H](C)[C@@H](CO)n1cc(C(=O)O)c(=O)c2cc(Cc3cc(N4CCOCC4)cc(Cl)c3F)c(CC)cc21 [Example 38, 6-[3-chloro-2-fluoro-5-(morpholin-4-yl)benzyl]-1-[(1R,2R)-2-ethoxy-1-(hydroxymethyl)propyl]-7-ethyl-4-oxo-1,4-dihydroquinoline-3-carboxylic acid]",< 10
17,"CCOC[C@@H](CO)n1cc(C(=O)O)c(=O)c2cc(Cc3cc(N4CCCC4=O)cc(Cl)c3F)c(OC)cc21 [Example 39, 6-[3-chloro-2-fluoro-5-(2-oxopyrrolidin-1-yl)benzyl]-1-((R)-1-ethoxymethyl-2-hydroxyethyl)-7-methoxy-4-oxo-1,4-dihydroquinoline-3-carboxylic acid]",< 10
18,"CCO[C@H](C)[C@@H](CO)n1cc(C(=O)O)c(=O)c2cc(Cc3cc(N4CCCC4=O)cc(Cl)c3F)c(CC)cc21 [Example 40, 6-[3-chloro-2-fluoro-5-(2-oxopyrrolidin-1-yl)benzyl]-1-[(1R,2R)-2-ethoxy-1-(hydroxymethyl)propyl]-7-ethyl-4-oxo-1,4-dihydroquinoline-3-carboxylic acid]",10 to 100
19,"CCc1cc2c(cc1Cc1cc(N3CCCC3=O)cc(Cl)c1F)c(=O)c(C(=O)O)cn2[C@H](CO)[C@@H](C)OC [Example 41, 6-[3-chloro-2-fluoro-5-(2-oxopyrrolidin-1-yl)benzyl]-7-ethyl-1-((1R,2R)-1-hydroxymethyl-2-methoxypropyl)-4-oxo-1,4-dihydroquinoline-3-carboxylic acid]",10 to 100
